In one assay the target is ROCK2 (Homo sapiens, UniProt O75116). Put plainly: ROCK2 kinase IC50 assay (CISBIO HTRF KinEASE-STK S2 kit). The format is biochemical. The following applies: incubated at room temperature for 2 hours. Summed up: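 HTRF KinEASE-STK S2 format with recombinant ROCK2 (1.4 ng per well), STK-S2 substrate and ATP from 5× working solutions of 1.5 μM each, run 2 h at room temperature. Nine-point dilutions from 10000 nM top concentration; 665/615 nm emission ratio normalised to no-compound and no-kinase controls, curve-fitted for IC50.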

For the next assay, the target named is ROCK1 (Homo sapiens (Human), UniProt Q13464). Put plainly: ROCK1 kinase IC50 assay (biological test method similar to the ROCK2 assay). In kind it is biochemical. Summed up: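 Compound dilution series (9 concentrations, top solution 10000 nM, DMSO-containing buffer) incubated 2 h at room temperature with kinase, STK-S2 substrate and ATP (5× working solutions of 1.5 µM each). Phosphorylation detected by HTRF (665/615 nm emission ratio) after 1 h; inhibition relative to full-reaction and kinase-free wells, fitted for IC50.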
Chain of ROCK1 (Q13464 whole entry, species assumed): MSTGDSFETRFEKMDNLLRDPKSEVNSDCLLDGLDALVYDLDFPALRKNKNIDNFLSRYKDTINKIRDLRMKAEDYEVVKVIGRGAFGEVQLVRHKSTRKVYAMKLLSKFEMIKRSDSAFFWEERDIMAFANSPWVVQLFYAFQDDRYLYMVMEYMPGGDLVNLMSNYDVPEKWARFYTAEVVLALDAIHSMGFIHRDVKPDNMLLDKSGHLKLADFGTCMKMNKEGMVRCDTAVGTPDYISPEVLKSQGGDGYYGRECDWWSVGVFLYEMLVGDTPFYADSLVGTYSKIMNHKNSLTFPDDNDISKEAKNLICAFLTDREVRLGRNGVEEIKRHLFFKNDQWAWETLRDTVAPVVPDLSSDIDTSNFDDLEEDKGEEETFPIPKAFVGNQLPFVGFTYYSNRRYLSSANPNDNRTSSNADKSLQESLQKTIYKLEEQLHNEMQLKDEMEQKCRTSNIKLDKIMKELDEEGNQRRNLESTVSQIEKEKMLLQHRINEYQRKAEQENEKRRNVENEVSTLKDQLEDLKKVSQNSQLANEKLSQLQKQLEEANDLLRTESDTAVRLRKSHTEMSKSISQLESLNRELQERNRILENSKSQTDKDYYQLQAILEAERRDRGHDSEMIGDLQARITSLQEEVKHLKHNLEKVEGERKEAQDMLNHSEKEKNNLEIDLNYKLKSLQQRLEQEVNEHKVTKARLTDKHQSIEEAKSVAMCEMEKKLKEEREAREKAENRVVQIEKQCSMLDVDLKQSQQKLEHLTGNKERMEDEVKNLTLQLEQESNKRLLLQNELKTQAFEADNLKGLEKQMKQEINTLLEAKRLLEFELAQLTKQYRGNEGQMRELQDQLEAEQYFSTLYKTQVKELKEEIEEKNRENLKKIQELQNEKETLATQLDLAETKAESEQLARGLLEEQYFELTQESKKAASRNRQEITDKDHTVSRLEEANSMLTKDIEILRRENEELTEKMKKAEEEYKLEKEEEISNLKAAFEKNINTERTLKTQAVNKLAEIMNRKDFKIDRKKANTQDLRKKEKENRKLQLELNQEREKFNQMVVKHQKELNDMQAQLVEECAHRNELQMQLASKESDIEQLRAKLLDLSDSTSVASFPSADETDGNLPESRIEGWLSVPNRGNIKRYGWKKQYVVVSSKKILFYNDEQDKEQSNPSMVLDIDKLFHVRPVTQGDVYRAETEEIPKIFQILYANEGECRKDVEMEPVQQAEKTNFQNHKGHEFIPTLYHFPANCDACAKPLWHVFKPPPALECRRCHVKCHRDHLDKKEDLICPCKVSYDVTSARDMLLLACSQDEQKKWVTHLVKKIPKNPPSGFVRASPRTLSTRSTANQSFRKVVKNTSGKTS

`N#CC1CCN(C(=O)c2cc3ccc(-c4nccc(Nc5ccc(-c6cn[nH]c6)cc5)n4)cc3[nH]2)CC1` [TDI01445, 1-(6-(4-((4-(1H-pyrazol-4-yl)phenyl)amino)pyrimidin-2-yl)-1H-indole-2-carbonyl)piperidine-4-carbonitrile]: the IC50 was 64 nM on ROCK2 and 3000 nM against ROCK1.
The like results for `O=C(C1CC(F)(F)C1)N1CCc2ccc(-c3nccc(Nc4ccc5[nH]ncc5c4)n3)cc2C1` [TDI01575, (7-(4-((1H-indazol-5-yl)amino)pyrimidin-2-yl)-3,4-dihydroisoquinolin-2(1H)-yl)(3,3-difluorocyclobutyl) methanone] were, in that order, 169 nM and > 10000 nM.
As to `O=C(C1CC(F)(F)C1)N1Cc2ccc(-c3ncnc(Nc4ccc(-c5cn[nH]c5)cc4)n3)cc2C1` [TDI01536, (5-(4-((4-(1H-pyrazol-4-yl)phenyl)amino)-1,3,5-triazin-2-yl)isoindolin-2-yl)(3,3-difluorocyclobutyl)methanone], the IC50 against ROCK2 is 105 nM; at ROCK1 it was > 10000 nM.
For the molecule `O=C(c1cc2ccc(-c3ncnc(Nc4ccc(-c5cn[nH]c5)cc4)n3)cc2[nH]1)N1CC(F)(F)C1` [TDI01581, (6-(4-((4-(1H-pyrazol-4-yl)phenyl)amino)-1,3,5-triazin-2-yl)-1H-indol-2-yl)(3,3-difluoroazetidin-1-yl)methanone], the concentration for half-maximal inhibition (IC50) at ROCK2 is 28 nM; on ROCK1, > 10000 nM.
The like results for `CN(C(=O)c1cc2ccc(-c3nccc(Nc4ccc(-c5cn[nH]c5)cc4)n3)cc2[nH]1)C1CCOC1` (stereo not drawn) [TDI01419, 6-(4-((4-(1H-pyrazol-4-yl)phenyl)amino)pyrimidin-2-yl)-N-methyl-N-(tetrahydrofuran-3-yl)-1H-indole-2-carboxamide] were, in that order, 385 nM and > 10000 nM.
On to `Cn1c(C(=O)N2CC(F)(F)C2)cc2ccc(-c3nc(Nc4ccc(-c5cn[nH]c5)cc4)c4cccn4n3)cc21` [TDI01948, (6-(4-((4-(1H-pyrazol-4-yl)phenyl)amino)pyrrolo[2,1-f][1,2,4]triazin-2-yl)-1-methyl-1H-indol-2-yl)(3,3-difluoroazetidin-1-yl)methanone], for which the results for the IC50 at ROCK2 and against ROCK1 were 103 nM and > 10000 nM, respectively.
Turning to `CC(NC(=O)c1cc2ccc(-c3nccc(Nc4ccc(-c5cn[nH]c5)cc4)n3)cc2n1C)C(F)(F)F` (stereo not drawn) [TDI01457, 6-(4-((4-(1H-pyrazol-4-yl)phenyl)amino)pyrimidin-2-yl)-1-methyl-N-(1,1,1-trifluoropropan-2-yl)-1H-indole-2-carboxamide], the values for the 50% inhibitory concentration (IC50) against ROCK2 and on ROCK1 were 395 nM and 4890 nM, respectively.
Regarding `O=C(c1cc2ccc(-c3nccc(Nc4ccc(-c5cn[nH]c5)cc4)n3)cc2[nH]1)N1CC2(CNC2)C1` [TDI01369, (6-(4-((4-(1H-pyrazol-4-yl)phenyl)-amino)-pyrimidin-2-yl)-1H-indol-2-yl)(2,6-diazaspiro[3.3]heptan-2-yl)methanone], the IC50 against ROCK2 was determined as 266 nM; against ROCK1, 6790 nM.
The like results for `CC(NC(=O)c1cc2ccc(-c3nccc(Nc4ccc(-c5cn[nH]c5)cc4)n3)cc2n1C)C(F)(F)F` (stereo not drawn) [TDI01691] were, in that order, 6 nM and 159 nM.
For `O=C(NC1CCN(c2ccncc2Cl)CC1)c1cc2ccc(-c3nccc(Nc4ccc(-c5cn[nH]c5)cc4)n3)cc2s1` [TDI01884, 6-(4-((4-(1H-pyrazol-4-yl)phenyl)-amino)-pyrimidin-2-yl)-N-(1-(3-chloropyridin-4-yl)piperidin-4-yl)benzo[b]-thiophene-2-carboxamide], the results for the 50% inhibitory concentration (IC50) against ROCK2 and against ROCK1 were 26 nM and > 10000 nM, respectively.
Take `O=C(C1CCOCC1)N1Cc2ccc(-c3nccc(Nc4ccc(-c5cn[nH]c5)cc4)n3)cc2C1` [TDI01560, (5-(4-((4-(1H-pyrazol-4-yl)phenyl)amino)pyrimidin-2-yl)isoindolin-2-yl)(tetrahydro-2H-pyran-4-yl)methanone]: the values for the half-maximal inhibitory concentration (IC50) against ROCK2 and at ROCK1 were 83 nM and > 10000 nM, respectively.
The like results for `CS(=O)(=O)C1CN(C(=O)c2cc3ccc(-c4nccc(Nc5ccc(-c6cn[nH]c6)cc5)n4)cc3[nH]2)C1` [TDI01465, (6-(4-((4-(1H-pyrazol-4-yl)phenyl)amino)pyrimidin-2-yl)-1H-indol-2-yl)(3-(methylsulfonyl)azetidin-l-yl)methanone] were, in that order, 398 nM and > 10000 nM.
As to `O=C(c1cc2ccc(-c3nc(Nc4ccc(-c5cn[nH]c5)cc4)c4sccc4n3)cc2[nH]1)N1CCOCC1` [TDI01450, (6-(4-((4-(1H-pyrazol-4-yl)phenyl)amino)thieno [3,2-d]pyrimidin-2-yl)-1H-indol-2-yl)(morpholino)methanone], the half-inhibitory concentration (IC50) against ROCK2 is 453 nM; against ROCK1 it was > 10000 nM.
For `Cn1c(C(=O)N2CC(F)(F)C2)cc2ccc(-c3ncc(C(F)(F)F)c(Nc4ccc(-c5cn[nH]c5)cc4)n3)cc21` [TDI01681, (6-(4-((4-(1H-pyrazol-4-yl)phenyl)amino)-5-(trifluoromethyl)pyrimidin-2-yl)-1-methyl-1H-indol-2-yl)(3,3-difluoroazetidin-1-yl)methanone], in that order: 238 nM and > 10000 nM.
Consider `Cn1c(C(=O)N2C[C@@H](F)[C@H](Br)C2)cc2ccc(-c3nccc(Nc4ccc(-c5cn[nH]c5)cc4)n3)cc21` [TDI01519, (6-(4-((4-(1H-py razol-4-yl)phenyl)amino)pyrimidin-2-yl)-1-methyl-1H-indol-2-yl)((3R,4R)-3-bromo-4-fluoropyrrolidin-1-yl)methanone], for which the IC50 against ROCK2 worked out at 102 nM; at ROCK1, 5240 nM.
As to `COc1cc(Nc2ccnc(-c3ccc4cc(C(=O)N5CC(F)(F)C5)n(C)c4c3)n2)ccc1-c1cn[nH]c1` [TDI01910, (3,3-difluoroazetidin-1-yl)(6-(4-((3-methoxy-4-(1H-pyrazol-4-yl)phenyl)amino)pyrimidin-2-yl)-1-methyl-1H-indol-2-yl)methanone], the IC50 against ROCK2 was 6 nM; against ROCK1, > 10000 nM.
For `COc1cc(Nc2ccnc(-c3ccc4cc(C(=O)N(C)C)[nH]c4c3)n2)ccc1-c1cn[nH]c1` [TDI01832, 6-(4-((3-methoxy-4-(1H-pyrazol-4-yl)phenyl)ami-no)pyrimidin-2-yl)-N, N-dimethyl-1H-indole-2-carboxamide], the half-maximal inhibitory concentration (IC50) was 167 nM at ROCK2 and > 10000 nM at ROCK1.
Regarding `CN(C)C(=O)N1Cc2ccc(-c3nc(Nc4ccc(-c5cn[nH]c5)cc4)c4occc4n3)cc2C1` [TDI01974, 5-(4-((4-(1H-pyrazol-4-yl)phenyl)amino)furo[3,2-d]pyrimidin-2-yl)-N,N-dimethylisoindoline-2-carboxamide], the figures for the 50% inhibitory concentration (IC50) at ROCK2 and against ROCK1 were 186 nM and > 10000 nM, respectively.
Consider `Cn1c(C(=O)N2CC(=CC#N)C2)cc2ccc(-c3nccc(Nc4ccc(-c5cn[nH]c5)cc4)n3)cc21` [TDI01515, 2-(1-(6-(4-((4-(1H-pyrazol-4-yl)phenyl)amino)pyrimidin-2-yl)-1-methyl-1H-indole-2-carbonyl)azetidin-3-ylidene) acetonitrile], for which the half-inhibitory concentration (IC50) at ROCK2 was determined as 110 nM; at ROCK1, 6860 nM.
As for `COc1cnc(-c2ccc3cc(C(=O)N4CC(F)(F)C4)n(C)c3c2)nc1Nc1ccc(-c2cn[nH]c2)cc1` [TDI01915, (6-(4-((4-(1H-pyrazol-4-yl)phenyl)amino)-5-methoxypyrimidin-2-yl)-1-methyl-1H-indol-2-yl)(3,3-difluoroazetidin-1-yl)methanone], the IC50 at ROCK2 was 18 nM; against ROCK1, > 10000 nM.
With `c1cc(Nc2ccc(-c3cn[nH]c3)cc2)nc(-c2ccc3cc(-c4nccs4)[nH]c3c2)n1` [TDI01826, N-(4-(1H-pyrazol-4-yl)phenyl)-2-(2-(thiazol-2-yl)-1H-indol-6-yl)pyrimidin-4-amine], the IC50 against ROCK2 is 75 nM; against ROCK1, > 10000 nM.
As to “5-(4-((4-(1H-pyrazol-4- yl)phenyl)amino)pyrimidin- 2-yl)-N,N-diethyl-1H- indole-2-carboxamide [TDI01408]”, the IC50 on ROCK2 came to 400 nM; against ROCK1, 5630 nM.
With `Cn1c(C(=O)N2CC(C(F)(F)F)C2)cc2ccc(-c3nccc(Nc4ccc(-c5cn[nH]c5)cc4)n3)cc21` [TDI01538, (6-(4-((4-(1H-pyrazol-4-yl)phenyl)amino)pyrimidin-2-yl)-1-methyl-1H-indol-2-yl)(3-(trifluoromethyl)azetidin-1-yl)methanone], the IC50 on ROCK2 was 198 nM; at ROCK1 it was 4930 nM.
On to `O=C(Oc1ccccc1)N1Cc2ccc(-c3nccc(Nc4ccc5[nH]ncc5c4)n3)cc2C1` [TDI01403, phenyl 5-(4-((1H-indazol-5-yl)amino)pyrimidin-2-yl)isoindoline-2-caiboxylate], for which the values for the 50% inhibitory concentration (IC50) on ROCK2 and against ROCK1 were 110 nM and 3000 nM, respectively.
`O=C(NC1CCCN(C2CCOCC2)C1)c1cc2ccc(-c3nccc(Nc4ccc5[nH]ncc5c4)n3)cc2[nH]1` (stereo not drawn) [TDI01390, 6-(4-((1H-indazol-5-yl)amino)-pyrimidin-2-yl)-N-(1-(tetrahydro-2H-pyran-4-yl)piperidin-3-yl)-1H-indole-2-carboxamide]: the 50% inhibitory concentration (IC50) turned out to be 18 nM against ROCK2 and 456 nM against ROCK1.
`O=C(c1cc2ccc(-c3nccc(Nc4ccc(-c5cn[nH]c5)cc4)n3)cc2[nH]1)N1CCC(F)C1` (stereo not drawn) [TDI01473, (6-(4-((4-(1H-pyrazol-4-yl)phenyl)amino)pyrimidin-2-yl)-1H-indol-2-yl)(3-fluoropyrrolidin-1-yl)methanone]: the IC50 on ROCK2 came to 18 nM; on ROCK1 it was 592 nM.
For `c1ccc2oc(-c3cc4ccc(-c5nccc(Nc6ccc7[nH]ncc7c6)n5)cc4[nH]3)nc2c1` [TDI01816, N-(2-(2-(benzo[d]oxazol-2-yl)-1H-indol-6-yl]pyrimidin-4-yl)-1H-indazol-5-amine], the half-maximal inhibitory concentration (IC50) against ROCK2 came to 111 nM; against ROCK1, 6010 nM.

Source of the values: patent US11390609B2, “Rho-associated protein kinase inhibitor, pharmaceutical composition comprising same, and preparation method and use thereof” (BEIJING TIDE PHARMACEUTICAL CO., LTD., priority 2017, dated 2022).
